Source: ChEMBL document CHEMBL3853343, “Discovery of novel 2',4'-dimethyl-[4,5'-bithiazol]-2-yl amino derivatives as orally bioavailable TRPV4 antagonists for the treatment of pain: Part 2” (Bioorg Med Chem Lett, 2016)

How the values were obtained:
[1] = target: T1, Transient receptor potential cation channel subfamily V member 4 (Rattus norvegicus, UniProt Q9ERZ8); experiment: Antagonist activity at rat TRPV4 assessed as inhibition of hypotonicity-induced activation
Rattus norvegicus [2] = experiment: Analgesic activity in rat assessed as reversal of complete Freund's adjuvant-induced mechanical hyperalgesia at 10 mg/kg, po after 3 hrs relative to control; format: functional
Salmonella typhimurium = experiment: Genotoxicity in Salmonella typhimurium by Ames test; format: toxicity, organism-based; conditions: salmonella enterica subsp. enterica serovar typhimurium
[3] = Total clearance in guinea pig at 1 mg/kg, iv; format: ADME, organism-based, Cavia porcellus; conditions: in vivo
Cavia porcellus [4] = experiment: Analgesic activity in Dunkin-Hartley guinea pig complete Freund's adjuvant-induced mechanical hyperalgesia model assessed as reversal in paw withdrawal threshold at 3 mg/kg, po after 5 hrs relative to control; format: functional
[5] = Stability in human liver microsomes assessed as parent compound remaining after 30 mins in presence or absence of NADPH; format: ADME, microsome; conditions: read-out: Stability
[6] = Metabolic stability in human hepatocytes assessed as parent compound remaining after 1 hr; format: ADME, cell-based, Hepatocyte; conditions: read-out: Stability
Cytochrome P450 2C19 = Cytochrome P450 2C19 (Homo sapiens, UniProt P33261); experiment: Inhibition of CYP2C19 (unknown origin); format: ADME
[7] = Tmax in rat at 1 mg/kg, po; format: ADME, organism-based; conditions: in vivo
Cavia porcellus [8] = experiment: Analgesic activity in Dunkin-Hartley guinea pig complete Freund's adjuvant-induced mechanical hyperalgesia model assessed as reversal in paw withdrawal threshold at 10 mg/kg, po after 5 hrs relative to control; format: functional
[9] = Protein binding in rat; format: ADME; conditions: read-out: PB
[10] = Volume of distribution at steady state in guinea pig at 1 mg/kg, iv; format: ADME, organism-based, Cavia porcellus; conditions: in vivo, read-out: Vdss
[11] = Plasma concentration in Dunkin-Hartley guinea pig complete Freund's adjuvant-induced mechanical hyperalgesia model at 3 mg/kg, po after 5 hrs; format: ADME, organism-based, Cavia porcellus
Rattus norvegicus [12] = experiment: Analgesic activity in rat assessed as reversal of complete Freund's adjuvant-induced mechanical hyperalgesia at 10 mg/kg, po after 1 hr relative to control; format: functional
[13] = Cmax in guinea pig at 20 mg/kg, po measured 12 hrs post dose; format: ADME, organism-based, Cavia porcellus; set-up: dose 20 mg/kg, route oral; conditions: in vivo
Rattus norvegicus [14] = experiment: Analgesic activity in rat assessed as reversal of complete Freund's adjuvant-induced mechanical hyperalgesia at 30 mg/kg, po after 1 hr relative to control; format: functional
Rattus norvegicus [15] = experiment: Analgesic activity in rat assessed as reversal of complete Freund's adjuvant-induced mechanical hyperalgesia at 30 mg/kg, po after 3 hrs relative to control; format: functional
[16] = Antagonist activity at guinea pig TRPV4 assessed as inhibition of 4alpha-PDD-induced activation; set-up: species or system Cavia porcellus
[17] = Metabolic stability in guinea pig hepatocytes assessed as parent compound remaining after 1 hr; format: ADME, cell-based, Cavia porcellus, Hepatocyte; conditions: read-out: Stability
[18] = Plasma concentration in Dunkin-Hartley guinea pig complete Freund's adjuvant-induced mechanical hyperalgesia model at 10 mg/kg, po after 5 hrs; format: ADME, organism-based, Cavia porcellus
[19] = Protein binding in guinea pig; format: ADME, Cavia porcellus; conditions: read-out: PB (converted)
[20] = target: T1, Transient receptor potential cation channel subfamily V member 4; experiment: Antagonist activity at rat TRPV4 assessed as inhibition of 4alpha-PDD-induced activation
[21] = Stability in rat liver microsomes assessed as parent compound remaining after 30 mins in presence or absence of NADPH; format: ADME, microsome; conditions: read-out: Stability
[22] = Half life in guinea pig at 1 mg/kg, iv; format: ADME, organism-based, Cavia porcellus; conditions: in vivo
Cavia porcellus [23] = experiment: Analgesic activity in Dunkin-Hartley guinea pig complete Freund's adjuvant-induced mechanical hyperalgesia model assessed as reversal in paw withdrawal threshold at 1 mg/kg, po after 5 hrs relative to control; format: functional
[24] = Half life in rat at 0.5 mg/kg, iv; format: ADME, organism-based; conditions: in vivo
[25] = Volume of distribution at steady state in rat at 0.5 mg/kg, iv; format: ADME, organism-based; conditions: in vivo, read-out: Vdss
[26] = Total clearance in rat at 0.5 mg/kg, iv; format: ADME, organism-based; conditions: in vivo
Cytochrome P450 2D6 = Cytochrome P450 2D6 (Homo sapiens, UniProt P10635); experiment: Inhibition of CYP2D6 (unknown origin); format: ADME
[27] = AUC in rat at 1 mg/kg, po; format: ADME, organism-based; conditions: in vivo
[28] = Tmax in guinea pig at 20 mg/kg, po; format: ADME, organism-based, Cavia porcellus; conditions: in vivo
Cytochrome P450 1A2 = target: T2, Cytochrome P450 1A2 (Homo sapiens, UniProt P05177); experiment: Inhibition of CYP1A2 (unknown origin); format: ADME
T2 sequence (P05177 whole entry): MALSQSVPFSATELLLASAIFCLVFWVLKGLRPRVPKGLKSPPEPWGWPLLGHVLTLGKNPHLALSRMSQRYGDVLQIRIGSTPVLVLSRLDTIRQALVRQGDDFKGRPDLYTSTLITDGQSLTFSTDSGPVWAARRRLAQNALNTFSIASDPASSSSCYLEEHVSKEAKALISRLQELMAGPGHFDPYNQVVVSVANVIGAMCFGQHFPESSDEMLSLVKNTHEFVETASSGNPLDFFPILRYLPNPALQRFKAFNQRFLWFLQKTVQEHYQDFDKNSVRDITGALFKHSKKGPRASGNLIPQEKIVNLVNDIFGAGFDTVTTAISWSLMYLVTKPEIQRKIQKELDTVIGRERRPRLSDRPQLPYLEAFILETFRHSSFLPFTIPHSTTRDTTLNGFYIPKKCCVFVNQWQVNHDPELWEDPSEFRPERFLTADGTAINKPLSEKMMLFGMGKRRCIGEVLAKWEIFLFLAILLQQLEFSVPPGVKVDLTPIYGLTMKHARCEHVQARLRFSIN

Rattus norvegicus [29] = experiment: Analgesic activity in rat assessed as reversal of complete Freund's adjuvant-induced mechanical hyperalgesia at 10 mg/kg, po after 5 hrs relative to control; format: functional
[30] = Antagonist activity at guinea pig TRPV4 assessed as inhibition of hypotonicity-induced activation; set-up: species or system Cavia porcellus
[31] = Protein binding in human; format: ADME; conditions: read-out: PB
[32] = Cmax in rat at 1 mg/kg, po; format: ADME, organism-based; set-up: dose 1 mg/kg, route oral; conditions: in vivo
[33] = AUC in guinea pig at 20 mg/kg, po; format: ADME, organism-based, Cavia porcellus; conditions: in vivo
Cytochrome P450 2C9 = Cytochrome P450 2C9 (Homo sapiens, UniProt P11712); experiment: Inhibition of CYP2C9 (unknown origin); format: ADME
[34] = Oral bioavailability in guinea pig at 20 mg/kg; format: ADME, organism-based, Cavia porcellus; conditions: in vivo
[35] = Metabolic stability in rat hepatocytes assessed as parent compound remaining after 1 hr; format: ADME, cell-based, Hepatocyte; conditions: read-out: Stability
Cytochrome P450 3A4 = Cytochrome P450 3A4 (Homo sapiens, UniProt P08684); experiment: Inhibition of CYP3A4 (unknown origin); format: ADME
[36] = Oral bioavailability in rat at 1 mg/kg; format: ADME, organism-based; conditions: in vivo
Rattus norvegicus [37] = experiment: Analgesic activity in rat assessed as reversal of complete Freund's adjuvant-induced mechanical hyperalgesia at 30 mg/kg, po after 5 hrs relative to control; format: functional
[38] = Plasma concentration in Dunkin-Hartley guinea pig complete Freund's adjuvant-induced mechanical hyperalgesia model at 1 mg/kg, po after 5 hrs; format: ADME, organism-based, Cavia porcellus

T1 sequence (Q9ERZ8 whole entry): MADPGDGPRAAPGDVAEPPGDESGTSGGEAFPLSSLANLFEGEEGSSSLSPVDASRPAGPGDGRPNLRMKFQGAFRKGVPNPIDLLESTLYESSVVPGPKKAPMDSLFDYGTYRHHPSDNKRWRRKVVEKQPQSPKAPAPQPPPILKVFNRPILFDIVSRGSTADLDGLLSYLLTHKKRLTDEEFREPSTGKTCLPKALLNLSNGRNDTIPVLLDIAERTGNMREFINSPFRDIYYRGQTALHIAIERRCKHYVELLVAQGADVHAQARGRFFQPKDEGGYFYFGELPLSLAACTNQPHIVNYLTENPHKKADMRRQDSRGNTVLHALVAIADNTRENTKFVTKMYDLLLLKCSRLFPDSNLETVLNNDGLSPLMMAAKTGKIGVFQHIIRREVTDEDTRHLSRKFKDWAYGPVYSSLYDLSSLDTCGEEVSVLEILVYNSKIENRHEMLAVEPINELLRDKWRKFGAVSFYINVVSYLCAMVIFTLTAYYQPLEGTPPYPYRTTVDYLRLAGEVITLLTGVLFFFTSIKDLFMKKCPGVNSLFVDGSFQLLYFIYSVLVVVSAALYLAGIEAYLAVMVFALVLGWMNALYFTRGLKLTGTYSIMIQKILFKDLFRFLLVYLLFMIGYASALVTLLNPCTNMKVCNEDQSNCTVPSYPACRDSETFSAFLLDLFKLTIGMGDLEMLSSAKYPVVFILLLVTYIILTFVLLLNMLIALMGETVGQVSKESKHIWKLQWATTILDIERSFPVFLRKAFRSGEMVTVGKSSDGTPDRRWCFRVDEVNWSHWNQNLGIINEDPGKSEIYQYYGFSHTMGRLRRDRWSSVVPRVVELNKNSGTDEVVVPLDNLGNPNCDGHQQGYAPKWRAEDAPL
Chain of Cytochrome P450 2C19 (P33261 whole entry): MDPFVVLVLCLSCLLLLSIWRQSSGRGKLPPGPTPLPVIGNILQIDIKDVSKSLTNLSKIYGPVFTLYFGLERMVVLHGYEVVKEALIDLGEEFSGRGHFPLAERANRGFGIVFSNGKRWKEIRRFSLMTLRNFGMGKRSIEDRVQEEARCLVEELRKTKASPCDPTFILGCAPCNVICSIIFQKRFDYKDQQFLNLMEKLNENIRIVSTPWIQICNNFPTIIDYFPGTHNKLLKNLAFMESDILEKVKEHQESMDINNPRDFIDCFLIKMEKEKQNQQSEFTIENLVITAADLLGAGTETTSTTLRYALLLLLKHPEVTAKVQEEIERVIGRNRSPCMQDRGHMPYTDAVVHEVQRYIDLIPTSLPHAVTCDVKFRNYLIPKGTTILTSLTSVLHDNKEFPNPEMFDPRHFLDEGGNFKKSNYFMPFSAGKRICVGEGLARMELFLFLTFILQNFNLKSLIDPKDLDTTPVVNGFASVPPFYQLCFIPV
Chain of Cytochrome P450 2D6 (P10635 whole entry): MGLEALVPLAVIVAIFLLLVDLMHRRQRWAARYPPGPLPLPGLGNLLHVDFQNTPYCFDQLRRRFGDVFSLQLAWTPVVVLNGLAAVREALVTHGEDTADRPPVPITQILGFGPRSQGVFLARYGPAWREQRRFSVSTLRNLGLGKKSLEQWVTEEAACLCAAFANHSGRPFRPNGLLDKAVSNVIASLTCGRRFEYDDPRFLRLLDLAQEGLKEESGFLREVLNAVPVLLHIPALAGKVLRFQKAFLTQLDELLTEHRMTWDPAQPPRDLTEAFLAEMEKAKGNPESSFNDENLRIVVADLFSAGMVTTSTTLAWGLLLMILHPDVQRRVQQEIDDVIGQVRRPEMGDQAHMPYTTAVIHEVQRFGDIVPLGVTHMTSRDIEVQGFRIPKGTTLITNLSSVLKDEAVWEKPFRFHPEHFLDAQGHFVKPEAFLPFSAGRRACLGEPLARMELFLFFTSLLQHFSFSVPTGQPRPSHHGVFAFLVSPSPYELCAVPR
Chain of Cytochrome P450 3A4 (P08684 whole entry): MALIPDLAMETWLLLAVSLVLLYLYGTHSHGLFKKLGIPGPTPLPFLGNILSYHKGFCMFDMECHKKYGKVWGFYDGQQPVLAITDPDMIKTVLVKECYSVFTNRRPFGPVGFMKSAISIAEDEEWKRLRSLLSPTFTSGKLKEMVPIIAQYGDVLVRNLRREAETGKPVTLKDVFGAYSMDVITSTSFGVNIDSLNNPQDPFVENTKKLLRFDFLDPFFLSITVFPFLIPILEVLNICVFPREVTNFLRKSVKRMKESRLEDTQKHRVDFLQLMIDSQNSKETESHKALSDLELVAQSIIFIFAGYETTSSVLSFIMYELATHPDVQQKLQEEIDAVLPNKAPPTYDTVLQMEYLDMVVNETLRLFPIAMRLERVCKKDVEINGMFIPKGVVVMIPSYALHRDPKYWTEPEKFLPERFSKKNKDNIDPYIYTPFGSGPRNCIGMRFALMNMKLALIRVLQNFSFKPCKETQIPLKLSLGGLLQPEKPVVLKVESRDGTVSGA
Chain of Cytochrome P450 2C9 (P11712 whole entry): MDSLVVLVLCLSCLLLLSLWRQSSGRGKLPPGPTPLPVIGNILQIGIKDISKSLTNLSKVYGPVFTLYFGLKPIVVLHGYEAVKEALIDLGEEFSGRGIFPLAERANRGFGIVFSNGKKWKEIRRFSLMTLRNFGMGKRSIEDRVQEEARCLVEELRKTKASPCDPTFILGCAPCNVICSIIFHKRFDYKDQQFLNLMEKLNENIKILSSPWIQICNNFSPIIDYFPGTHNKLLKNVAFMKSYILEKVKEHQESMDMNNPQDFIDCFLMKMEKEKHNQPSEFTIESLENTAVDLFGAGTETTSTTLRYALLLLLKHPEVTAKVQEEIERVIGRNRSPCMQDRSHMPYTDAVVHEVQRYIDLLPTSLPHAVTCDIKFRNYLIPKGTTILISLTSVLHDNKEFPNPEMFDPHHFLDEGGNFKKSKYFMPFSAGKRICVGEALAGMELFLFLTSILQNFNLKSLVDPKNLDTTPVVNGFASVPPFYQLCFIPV

For `Cc1nc(C)c(-c2csc(Nc3ccc(C(=O)N4C5CCC4CN(c4ncc(C(F)(F)F)cn4)C5)cn3)n2)s1`, the IC50 [1] was 2.1 nM, the Activity (Rattus norvegicus [2]) was 21.3% and the Activity (Salmonella typhimurium) was “Non-Toxic”. The clearance [3] was 31.1 mL/min/kg, the Activity (Cavia porcellus [4]) was 30.6% and the remaining at 0.5 h [5] was 94.8%. It also gave a remaining at 1 h [6] of 91%, an INH (Cytochrome P450 2C19) of over 20 µM and a Tmax [7] of 4 h. It also gave an Activity (Cavia porcellus [8]) of 43.4%, a fraction unbound [9] of under 0.001 and a Vd [10] of 11 L/kg. For the same compound, the concentration at 5 h [11] was 69.4 ng/mL, the Activity (Rattus norvegicus [12]) was 15.5% and the Cmax [13] was 256 ng/mL. For the same compound, the Activity (Rattus norvegicus [14]) was 22%, the Activity (Rattus norvegicus [15]) was 29.7% and the IC50 [16] was 0.9 nM. For the same compound, the remaining at 1 h [17] was 73%, the concentration at 5 h [18] was 209 ng/mL and the fraction unbound [19] was 0.003. The IC50 [20] was 8.6 nM, the remaining at 0.5 h [21] was 69.2% and the half-life [22] was 4.2 h. The Activity (Cavia porcellus [23]) was 15.6%, the half-life [24] was 8.1 h and the Vd [25] was 4.6 L/kg. It also gave a clearance [26] of 7.22 mL/min/kg, an INH (Cytochrome P450 2D6) of over 20 µM and an AUC [27] of 900 ng·h/mL. It also gave a Tmax [28] of 12 h, an INH (Cytochrome P450 1A2) of over 20 µM and an Activity (Rattus norvegicus [29]) of 11%. For the same compound, the IC50 [30] was 1.2 nM, the fraction unbound [31] was under 0.001 and the Cmax [32] was 55.2 ng/mL. It also gave an AUC [33] of 4720 ng·h/mL, an INH (Cytochrome P450 2C9) of over 20 µM and a bioavailability [34] of 44%. For the same compound, the remaining at 1 h [35] was 105%, the INH (Cytochrome P450 3A4) was over 20 µM and the bioavailability [36] was 37.9%. For the same compound, the Activity (Rattus norvegicus [37]) was 23.5% and the concentration at 5 h [38] was 21.2 ng/mL.
